According to ChEMBL document CHEMBL3885861, “Open TG-GATES”:

Species on record: Rattus norvegicus
Assay: Open TG-GATES - Regimen: Single
Assay type: toxicity, organism-based, Sprague-Dawley
Design: regimen Single, gender Male, age 6 weeks
Conditions: in vivo, iv, route intravenous injection; for TP / gamma-GTP / ALP / ALT / BUN / CRE / DBIL / GLC / IP / K / LDH / PL / RALB / TBIL / TC / TG / AST / Na: tissue Plasma; for KIDNEY_L / KIDNEY_R / KIDNEY_TOTAL: tissue Kidney; for LIVER: tissue Liver
[1] = 30 mg/kg, 24 h, dose level Middle
[2] = 100 mg/kg, 3 h, tissue Blood, dose level High
[3] = 100 mg/kg, 3 h, dose level High
[4] = 100 mg/kg, 6 h, dose level High
[5] = 100 mg/kg, 6 h, tissue Blood, dose level High
[6] = 100 mg/kg, 9 h, dose level High
[7] = 100 mg/kg, 9 h, tissue Blood, dose level High
[8] = 100 mg/kg, 24 h, dose level High
[9] = 100 mg/kg, 24 h, tissue Blood, dose level High

CARBOPLATIN
TP [1]: 5.5 g/dL | gamma-GTP [1]: 1.2 IU/L | APTT [2]: 22.8 s | Bas [2]: 0% | Eos [2]: 0.6% | Fbg [2]: 275 mg/dL | MCHC [2]: 32.4% | MCV [2]: 64.2 fL | Mono [2]: 2.8% | Neu [2]: 17.2% | PT [2]: 15.7 s | Plat [2]: 123.5 x10_4/uL | RBC [2]: 630.8 x10_4/ul | Ret [2]: 6.4% | WBC [2]: 81.4 x10_2/uL | KIDNEY_L [3]: 0.9 g | KIDNEY_R [3]: 0.9 g | KIDNEY_TOTAL [3]: 1.9 g | LIVER [3]: 9.2 g | ALP [3]: 1630.8 IU/L | ALT [3]: 45 IU/L | BUN [3]: 12 mg/dL | CRE [3]: 0.2 mg/dL | DBIL [3]: 0 mg/dL | GLC [3]: 170.6 mg/dL | IP [3]: 9.1 mg/dL | K [3]: 4.2 meq/L | LDH [3]: 173.8 IU/L | PL [3]: 129 mg/dL | RALB [3]: 3 g/dL | TBIL [3]: 0.014 mg/dL | TC [3]: 69.8 mg/dL | TG [3]: 70.8 mg/dL | TP [3]: 5.3 g/dL | gamma-GTP [3]: 1.2 IU/L | TERMINAL_BW [4]: 200.2 g | APTT [5]: 24.4 s | Bas [5]: 0% | Eos [5]: 0.8% | Fbg [5]: 286.8 mg/dL | Ht [5]: 41.1% | Lym [5]: 76% | MCH [5]: 20 pg | MCHC [5]: 32.2% | MCV [5]: 62.2 fL | Mono [5]: 6.4% | Plat [5]: 125.8 x10_4/uL | RBC [5]: 663.8 x10_4/ul | Ret [5]: 5.2% | WBC [5]: 91 x10_2/uL | KIDNEY_L [4]: 1 g | KIDNEY_R [4]: 1 g | KIDNEY_TOTAL [4]: 1.9 g | LIVER [4]: 8.2 g | ALP [4]: 1531.2 IU/L | ALT [4]: 40.4 IU/L | AST [4]: 84.4 IU/L | BUN [4]: 10.8 mg/dL | CRE [4]: 0.2 mg/dL | DBIL [4]: 0 mg/dL | GLC [4]: 176.6 mg/dL | IP [4]: 9.5 mg/dL | K [4]: 4.2 meq/L | LDH [4]: 177.8 IU/L | Na [4]: 140 meq/L | PL [4]: 109.6 mg/dL | RALB [4]: 2.9 g/dL | TBIL [4]: 0.02 mg/dL | TC [4]: 61.8 mg/dL | TG [4]: 37.4 mg/dL | TP [4]: 5.3 g/dL | gamma-GTP [4]: 1.2 IU/L | TERMINAL_BW [6]: 204.6 g | APTT [7]: 24.9 s | Bas [7]: 0% | Eos [7]: 0.8% | Fbg [7]: 299.4 mg/dL | Ht [7]: 40.5% | Lym [7]: 73.8% | MCHC [7]: 32.4% | MCV [7]: 62.8 fL | Mono [7]: 3.4% | Neu [7]: 21.2% | PT [7]: 15.9 s | Plat [7]: 136.6 x10_4/uL | RBC [7]: 645.2 x10_4/ul | Ret [7]: 6.1% | WBC [7]: 69 x10_2/uL | KIDNEY_L [6]: 0.9 g | KIDNEY_R [6]: 1 g | KIDNEY_TOTAL [6]: 1.9 g | LIVER [6]: 8.4 g | ALP [6]: 1146.6 IU/L | ALT [6]: 34.4 IU/L | AST [6]: 72.8 IU/L | CRE [6]: 0.2 mg/dL | DBIL [6]: 0 mg/dL | GLC [6]: 174.8 mg/dL | IP [6]: 9.9 mg/dL | K [6]: 4.5 meq/L | LDH [6]: 172.4 IU/L | Na [6]: 139.4 meq/L | RALB [6]: 2.9 g/dL | TBIL [6]: 0.022 mg/dL | TC [6]: 69.2 mg/dL | TG [6]: 54.4 mg/dL | TP [6]: 5.2 g/dL | gamma-GTP [6]: 1.6 IU/L | TERMINAL_BW [8]: 203.7 g | APTT [9]: 23.6 s | Bas [9]: 0% | Eos [9]: 0.2% | Fbg [9]: 306.2 mg/dL | Hb [9]: 12.9 g/dL | Ht [9]: 40.2% | Lym [9]: 82.6% | MCHC [9]: 32.2% | Mono [9]: 4% | Neu [9]: 12% | PT [9]: 16.2 s | Plat [9]: 123.1 x10_4/uL | RBC [9]: 641.4 x10_4/ul | Ret [9]: 2.7% | WBC [9]: 69.6 x10_2/uL | KIDNEY_L [8]: 0.9 g | KIDNEY_R [8]: 1 g | KIDNEY_TOTAL [8]: 1.9 g | LIVER [8]: 8.8 g | ALP [8]: 1486.6 IU/L | ALT [8]: 41.2 IU/L | AST [8]: 76.8 IU/L | CRE [8]: 0.2 mg/dL | DBIL [8]: 0.002 mg/dL | GLC [8]: 179.2 mg/dL | IP [8]: 8.4 mg/dL | K [8]: 4.3 meq/L | LDH [8]: 176.8 IU/L | PL [8]: 135.6 mg/dL | RALB [8]: 3.1 g/dL | TBIL [8]: 0.022 mg/dL | TC [8]: 78.6 mg/dL | TG [8]: 51.2 mg/dL | TP [8]: 5.6 g/dL | gamma-GTP [8]: 1.2 IU/L
